Reference: US10375962B2, “Heterocycle derivatives as pesticides” (BAYER CROPSCIENCE AKTIENGESELLSCHAFT, priority 2016, dated 2019)

Columns and labels:
[1] = test system: caterpillars of the armyworm (Spodoptera frugiperda); experiment: Spodoptera frugiperda - spray test; type: in vivo; settings: maize leaf discs, after 7 days
Description: Solvent: 78.0 parts by weight of acetone • • 1.5 parts by weight of dimethylformamide Emulsifier: alkylaryl polyglycol ether […] To produce further test concentrations, the formulation is diluted with emulsifier-containing water. Leaf discs of maize (Zea mays) are sprayed with an active compound preparation of the desired concentration and, after drying, populated with caterpillars of the armyworm (Spodoptera frugiperda).

[2] = log P by HPLC on a reversed-phase column (C 18), EEC Directive 79/831 Annex V.A8; type: physicochemical
Excerpt: Called log P (HCOOH) in the table.
Called log P (neutral) in the table.

[3] = test system: L1 larvae of the Australian sheep blowfly (Lucilia cuprina); experiment: Lucilia cuprina test; type: in vivo; settings: application rate 100 ppm; after 2 days
Description: Solvent: dimethyl sulphoxide
To produce a suitable active compound formulation, 10 mg of active compound are mixed with 0.5 ml of dimethyl sulphoxide, and the concentrate is diluted with water to the desired concentration.
About 20 L1 larvae of the Australian sheep blowfly (Lucilia cuprina) are transferred into a test vessel containing minced horsemeat and the active compound formulation of the desired concentration.
After 2 days, the kill in % is determined. 100% means that all the larvae have been killed; 0% means that no larvae have been killed.

[4] = test system: larvae of the mustard beetle (Phaedon cochleariae); experiment: Phaedon cochleariae - spray test; type: in vivo; settings: after 7 days
Description: Solvent: 78.0 parts by weight of acetone • • 1.5 parts by weight of dimethylformamide
Emulsifier: alkylaryl polyglycol ether
(§1) To produce a suitable active compound formulation, 1 part by weight of active compound is dissolved with the stated parts by weight of solvent and made up with water containing an emulsifier concentration of 1000 ppm until the desired concentration is attained. To produce further test concentrations, the formulation is diluted with emulsifier-containing water.
Discs of Chinese cabbage leaves (Brassica pekinensis) are sprayed with an active compound formulation of the desired concentration and, after drying, populated with larvae of the mustard beetle (Phaedon cochleariae).
After 7 days, the efficacy in % is determined. 100% means that all the beetle larvae have been killed and 0% means that none of the beetle larvae have been killed.

[5] = test system: green peach aphid (Myzus persicae); experiment: Myzus persicae - spray test (Chinese cabbage leaf discs); type: in vivo; settings: after 5 days
Description: Solvent: 78 parts by weight of acetone • • 1.5 parts by weight of dimethylformamide Emulsifier: alkylaryl polyglycol ether
as §1
Discs of Chinese cabbage leaves (Brassica pekinensis) infested by all stages of the green peach aphid (Myzus persicae) are sprayed with an active compound formulation of the desired concentration.
After 5 days, the efficacy in % is determined. 100% means that all the aphids have been killed and 0% means that none of the aphids have been killed.

[6] = acidic range, pH 2.7, 0.1% aqueous formic acid/acetonitrile, 55° C.
[7] = neutral range, pH 7.8, 0.001 molar aqueous ammonium hydrogencarbonate/acetonitrile, 55° C.

Row | LOGP_HCOOH (log P (HCOOH)) ([2]; pH 2.7) | LOGP_NEUTRAL (log P (neutral)) ([2]; pH 7.8) | SMILES | efficacy ([1]; application rate 100 g/ha) | efficacy ([4]; application rate 100 g/ha) | also measured
1 | 3.76 | 3.74 | CCS(=O)(=O)c1ccc(-n2ccc3cccnc32)nc1-c1nc2cc(C(F)(F)F)ncc2n1C [Example I-29] | 100% | – | efficacy ([1]; application rate 500 g/ha): 100%; efficacy (kill) [3]: 100%
2 | 2.69 | 2.67 | CCS(=O)(=O)c1ccc(-n2cnc3ccc(OC)cc32)nc1-c1nc2cc(C(F)(F)F)ncc2n1C [Example I-30] | – | – | –
3 | 3.25 | 3.20 | CCS(=O)(=O)c1ccc(-n2cnc3ccc(Cl)nc32)nc1-c1nc2cc(C(F)(F)F)ncc2n1C [Example I-33] | 100% | 100% | efficacy ([4]; application rate 500 g/ha): 100%; efficacy ([5]; application rate 500 g/ha): 90%; efficacy ([1]; application rate 500 g/ha): 100%
4 | 2.96 | 3.00 | CCS(=O)(=O)c1ccc(-n2nnc3ccc(Cl)nc32)nc1-c1nc2cc(C(F)(F)F)ncc2n1C [Example I-37] | – | – | efficacy ([5]; application rate 100 g/ha): 90%
5 | 3.29 | 3.32 | CCS(=O)(=O)c1ccc(N2Cc3cc(OC)ccc3C2=O)nc1-c1nc2cc(C(F)(F)F)ncc2n1C [Example I-38] | 100% | – | –
6 | 2.92 | 2.96 | CCS(=O)(=O)c1ccc(N2C(=O)c3ccccc3C2=O)nc1-c1nc2cc(C(F)(F)F)ncc2n1C [Example I-40] | – | 100% | efficacy ([4]; application rate 500 g/ha): 100%
7 | – | – | CCS(=O)(=O)c1ccc(-n2c(=O)oc3ccccc32)nc1-c1nc2cc(C(F)(F)F)ncc2n1C [Example I-41] | – | – | LOGP_HCOOH (log P (HCOOH)) [2, 6]: 3.25; LOGP_NEUTRAL (log P (neutral)) [2, 7]: 3.26
8 | 2.42 | 2.38 | CCS(=O)(=O)c1ccc(-n2nc3ccc(Cl)nn3c2=O)nc1-c1nc2cc(C(F)(F)F)ncc2n1C [Example I-42] | – | 100% | –
9 | 3.10 | 3.06 | CCS(=O)(=O)c1ccc(-n2c(=O)n(C)c3ccccc32)nc1-c1nc2cc(C(F)(F)F)ncc2n1C [Example I-44] | – | – | –
10 | 2.59 | 2.62 | CCS(=O)(=O)c1ccc(-n2c(=O)[nH]c3ccccc32)nc1-c1nc2cc(C(F)(F)F)ncc2n1C [Example I-45] | – | – | –
11 | 2.26 | 2.30 | CCS(=O)(=O)c1ccc(N2Cc3cccnc3C2=O)nc1-c1nc2cc(C(F)(F)F)ncc2n1C [Example I-46] | – | – | –
12 | 3.05 | – | CCS(=O)(=O)c1ccc(-n2c(=O)[nH]c3cc(Cl)ccc32)nc1-c1nc2cc(C(F)(F)F)ncc2n1C [Example I-47] | – | – | –
13 | 2.97 | – | CCS(=O)(=O)c1ccc(-n2c(=O)[nH]c3ccc(Cl)cc32)nc1-c1nc2cc(C(F)(F)F)ncc2n1C [Example I-48] | – | – | –
14 | – | – | CCS(=O)(=O)c1ccc(-n2nnc3ccc(Cl)cc32)nc1-c1nc2cc(C(F)(F)F)ncc2n1C [Example I-49] | 100% | 100% | LOGP_HCOOH (log P (HCOOH)) [2, 6]: 3.74; LOGP_NEUTRAL (log P (neutral)) [2, 7]: 3.74
15 | – | – | CCS(=O)(=O)c1ccc(-n2nnc3cc(Cl)ccc32)nc1-c1nc2cc(C(F)(F)F)ncc2n1C [Example I-50] | 100% | 100% | LOGP_HCOOH (log P (HCOOH)) [2, 6]: 3.72; LOGP_NEUTRAL (log P (neutral)) [2, 7]: 3.77
16 | 2.09 | 2.08 | CCS(=O)(=O)c1ccc(-n2cccc3oc(=O)nc2-3)nc1-c1nc2cc(C(F)(F)F)ncc2n1C [Example I-51] | – | – | –
